Paper PMC3673949, “Small Molecule R1498 as a Well-Tolerated and Orally Active Kinase Inhibitor for Hepatocellular Carcinoma and Gastric Cancer Treatment via Targeting Angiogenesis and Mitosis Pathways” (PLoS ONE, 2013)

How the values were obtained:
HUVEC = HUVEC tube formation assay; format: cell-based, human
HCCLM3 xenograft = test: Xenograft efficacy study; format: in vivo, BALB/C nu/nu nude mice; settings: HCCLM3, 12.5 mg/kg twice a day per oral gavage
GC and HCC xenografts = test: Panel of GC and HCC xenografts, comparison with sorafenib; format: in vivo, BALB/C nu/nu nude mice
CNE-2 xenograft = system: CNE-2 xenograft
Excerpt: The use and care of experimental animal was approved by Institutional Animal Care and Use Committee, Roche R&D Center (China). Tumor cells were inoculated into the right flank of BALB/C nu/nu female nude mice (5∼6 weeks, 16∼18 g, obtained from Sino-British SIPPR/BK Lab. Animal Ltd, Shanghai, China) at optimal density based on our in-house validation study. After the tumor was established and reached 100∼150 mm^3, the mice were randomized into ten mice per group and received treatment according to the schedule. The tumor growth was recorded three times a week with the measurement of length (L) and width (W) by caliper, and calculated as tumor volume (TV, mm^3) = 0.5*L*W*W (mm). […] The tumor regression of individual mouse was defined - the tumor volume at the end was less than the tumor volume when treatment was initiated.

[1] = system: cyclin-dependent kinase 2 (CDK2); set-up: method as in PMID 20832307; settings: previously identified; cited from earlier work
BEL-7402 xenograft = test: Xenograft efficacy study; format: in vivo, BALB/C nu/nu nude mice
[2] = system: phospho-Aurora kinase A (T288); test: Immunofluorescence / western blot of Aurora A activity marker in SGC-7901; format: cell-based, human
Experimental: Cell lysate was prepared in RIPA buffer and quantified by the bicinchoninic acid (BCA) method (Pierce, Rockford, IL). Thirty micrograms of protein per sample was loaded onto a 4∼12% NuPAGE® Novex SDS gel (Invitrogen). The protein was transferred by an iBlot® dry blotting device (Invitrogen) onto nitrocellulose membranes. After blocking nonspecific binding with TBS/Tween20 (0.1%) (TBS/T) containing 5% non-fat milk for 1 h at room temperature, the membrane was incubated in phospho-Aurora A (Thr288) (C39D8) rabbit monoclonal antibody (Cell Signaling Technology, CST #3079, Beverly, MA) or phospho-Histone H3 (Ser10) rabbit polyclonal antibody (CST#9701) (1∶1000 in TBS/T containing 3% bovine serum albumin (BSA), and gently shaken at 4°C overnight. The membrane was washed with TBS/T three times to remove the unbound antibody, then incubated with the secondary antibody (HRP-conjugated goat anti-mouse IgG or goat anti-rabbit IgG, 1∶10000, KangChen Biotech, Shanghai, China) for 1 h at room temperature, respectively. Protein bands were visualized with an enhanced chemiluminescence (ECL) kit (Pierce, Rockford, IL). […]

BEL-7404 xenograft = test: Xenograft efficacy study; format: in vivo, BALB/C nu/nu nude mice
VEGFR2 = VEGFR2 (Homo sapiens, UniProt P35968); test: Z'-Lyte kinase activity assay; format: biochemical; settings: mean of three independent experiments
Experimental: (§1) The affinity of R1498 against 402 kinases was determined by KINOMEScan® (Ambit Biosciences, San Diego, CA) and data were presented as dissociation constant (Kd) values. The inhibition on kinase activity of Aurora kinases and VEGFR2 was further characterized by Z’-Lyte kinase activity assays under corresponding ATP concentrations.

Aurora kinase A = Aurora kinase A (Homo sapiens, UniProt O14965); test: Z'-Lyte kinase activity assay; format: biochemical; settings: mean of three independent experiments
Experimental: as §1

Aurora kinase B = Aurora kinase B (Homo sapiens, UniProt Q96GD4); test: Z'-Lyte kinase activity assay; format: biochemical; settings: mean of three independent experiments
Experimental: as §1

phospho-Aurora A (T288) = test: Immunohistochemistry of BEL-7402 tumors, Aurora kinase A activity marker; format: in vivo, BALB/C nu/nu nude mice; settings: BEL-7402 tumors from efficacy study
Experimental: The 8 µm paraffin embedded tumor tissue slides prepared from tumor of in vivo efficacy studies were heated in a dry oven at 60°C for 1 hour, then deparaffinized and hydrolyzed by Leica autostainer XL ST5010 at room temperature. Antigen retrieval was carried out at 95∼99°C in citrate buffer (0.01 M, pH 6.0) heated by a medical microwave at 92–98°C for 5 min, then cooled down to room temperature. Then peroxidase-blocking reagent (DAKO, DK-2600, Glostrup Denmark) was applied to quench the endogenous peroxidase. The slides were incubated in blocking serum for 20 min, then covered by 100 µL phospho-Aurora A (Thr288) (C39D8) rabbit mAb (CST #3079, 1∶200 in TBS/T) or rabbit anti-human CD31 polyclonal antibody (Santa Cruz Biotech, sc-8306, Santa Cruz, CA, USA; 1∶200 in TBS/T) at 4°C overnight, then incubated in 100 µL DAKO Envision+/HRP, rabbit/mouse after being washed thoroughly with TBS. One hundred micro liters of substrate-chromogenic solution (DAB) were applied to the slides and incubated at room temperature for 10 min. The slides were rinsed gently with tap water for 15 min. Counterstain and dehydration was performed by XL ST5010 at room temperature. Finally, the slides were mounted with Permount mounting medium (Fisher Scientific, Miami, FL).

Sequence of Aurora kinase A (O14965 whole entry): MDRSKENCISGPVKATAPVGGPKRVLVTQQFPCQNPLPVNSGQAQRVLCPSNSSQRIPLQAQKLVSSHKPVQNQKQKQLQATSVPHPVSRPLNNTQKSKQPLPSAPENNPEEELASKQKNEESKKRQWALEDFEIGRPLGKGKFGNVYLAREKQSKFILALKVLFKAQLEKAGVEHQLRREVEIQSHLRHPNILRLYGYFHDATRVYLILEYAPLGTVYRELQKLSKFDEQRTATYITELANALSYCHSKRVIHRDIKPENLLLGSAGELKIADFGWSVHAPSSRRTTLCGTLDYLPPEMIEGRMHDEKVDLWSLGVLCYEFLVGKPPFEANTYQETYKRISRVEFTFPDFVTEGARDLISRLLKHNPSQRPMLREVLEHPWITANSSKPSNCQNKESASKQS
Sequence of VEGFR2 (P35968 20-1356): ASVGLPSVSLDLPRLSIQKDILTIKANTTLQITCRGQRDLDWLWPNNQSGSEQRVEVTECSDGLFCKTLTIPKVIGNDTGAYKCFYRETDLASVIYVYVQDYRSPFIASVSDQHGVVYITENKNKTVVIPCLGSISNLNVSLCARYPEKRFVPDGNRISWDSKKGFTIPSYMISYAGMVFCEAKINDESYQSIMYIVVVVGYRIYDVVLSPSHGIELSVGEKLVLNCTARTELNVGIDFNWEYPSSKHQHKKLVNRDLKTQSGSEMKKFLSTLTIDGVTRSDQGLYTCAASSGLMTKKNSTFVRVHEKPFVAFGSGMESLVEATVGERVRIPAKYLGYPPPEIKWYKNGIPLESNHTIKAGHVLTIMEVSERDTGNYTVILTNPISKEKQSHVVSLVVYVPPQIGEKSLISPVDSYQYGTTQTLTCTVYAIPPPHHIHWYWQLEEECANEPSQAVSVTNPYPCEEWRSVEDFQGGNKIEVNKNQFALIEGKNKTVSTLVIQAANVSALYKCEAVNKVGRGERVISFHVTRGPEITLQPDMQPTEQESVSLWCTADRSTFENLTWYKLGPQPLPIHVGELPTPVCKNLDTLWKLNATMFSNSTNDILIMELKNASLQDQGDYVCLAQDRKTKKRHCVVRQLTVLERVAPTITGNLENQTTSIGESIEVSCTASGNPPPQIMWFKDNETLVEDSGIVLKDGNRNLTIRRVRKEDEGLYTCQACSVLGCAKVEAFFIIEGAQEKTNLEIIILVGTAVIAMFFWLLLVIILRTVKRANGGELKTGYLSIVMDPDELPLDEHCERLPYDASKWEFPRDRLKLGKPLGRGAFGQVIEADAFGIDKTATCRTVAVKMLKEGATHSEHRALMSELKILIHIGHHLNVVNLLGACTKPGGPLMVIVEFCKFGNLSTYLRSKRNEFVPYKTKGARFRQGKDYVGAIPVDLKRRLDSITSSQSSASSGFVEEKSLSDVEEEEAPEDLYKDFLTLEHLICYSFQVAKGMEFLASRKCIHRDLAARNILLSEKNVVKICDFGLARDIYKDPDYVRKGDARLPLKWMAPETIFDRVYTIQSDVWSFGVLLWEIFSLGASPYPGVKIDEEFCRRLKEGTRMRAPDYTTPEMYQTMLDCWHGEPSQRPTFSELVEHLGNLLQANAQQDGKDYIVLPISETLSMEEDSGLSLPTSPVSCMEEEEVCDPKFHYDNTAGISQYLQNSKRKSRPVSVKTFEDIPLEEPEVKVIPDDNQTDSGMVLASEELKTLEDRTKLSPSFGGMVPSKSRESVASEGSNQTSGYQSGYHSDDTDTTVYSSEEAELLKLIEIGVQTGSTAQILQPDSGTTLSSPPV
Sequence of Aurora kinase B (Q96GD4 whole entry): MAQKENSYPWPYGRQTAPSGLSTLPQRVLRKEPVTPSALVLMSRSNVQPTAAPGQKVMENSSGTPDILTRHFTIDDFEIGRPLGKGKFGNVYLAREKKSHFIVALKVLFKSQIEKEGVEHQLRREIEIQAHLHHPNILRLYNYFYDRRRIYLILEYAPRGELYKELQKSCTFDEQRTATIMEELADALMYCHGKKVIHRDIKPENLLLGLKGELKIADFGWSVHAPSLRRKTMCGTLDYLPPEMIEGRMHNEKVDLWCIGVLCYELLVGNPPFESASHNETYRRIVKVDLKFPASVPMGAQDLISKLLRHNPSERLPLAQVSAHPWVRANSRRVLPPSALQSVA

SMILES: COc1ccc2c(c1)C(c1ccccc1Cl)=Nc1c(n[nH]c1C)N2 [R1498]
- HUVEC proliferation under tube formation treatment condition (HUVEC; 8 hr exposure, data not shown): didn’t affect HUVEC proliferation
- tube formation (HUVEC; HUVEC on Matrigel, 3 µM, 8 h, vs DMSO): formed fewer intact tube meshes
- Final TGI% (HCCLM3 xenograft; day of study termination): 81%
- Body weight changes% (HCCLM3 xenograft; before vs after treatment): 15.3%
- Tumor Regression (HCCLM3 xenograft; mice with regression/group): 0/10
- tumor growth inhibition (GC and HCC xenografts; all test models (GC and HCC xenografts)): > 80%
- TGI% over TGI% of sorafenib (GC and HCC xenografts; gastric cancer xenografts, same schedule): 2–12%
- TGI% more than TGI% of sorafenib (GC and HCC xenografts; hepatocarcinoma xenografts, same schedule): 10–19%
- Body weight changes% (CNE-2 xenograft; CNE-2, 25 mg/kg twice a day per oral gavage, before vs after treatment): 16.3%
- Tumor Regression (CNE-2 xenograft; CNE-2, 25 mg/kg twice a day per oral gavage, mice with regression/group): 0/10
- Final TGI% (CNE-2 xenograft; CNE-2, 25 mg/kg twice-daily per oral gavage, day of study termination): 90%
- CDK2 inhibition [1]: weak
- Final TGI% (BEL-7402 xenograft; BEL-7402, 25 mg/kg twice a day per oral gavage, day of study termination): 102%
- Body weight changes% (BEL-7402 xenograft; BEL-7402, 25 mg/kg twice a day per oral gavage, before vs after treatment): 2%
- Tumor Regression (BEL-7402 xenograft; BEL-7402, 25 mg/kg twice a day per oral gavage, mice with regression/group): 8/10
- Final TGI% (BEL-7402 xenograft; BEL-7402, 3.125 mpk, bid, PO): 56%
- Final TGI% (BEL-7402 xenograft; BEL-7402, 6.25 mpk, bid, PO): 69%
- Final TGI% (BEL-7402 xenograft; BEL-7402, 12.5 mpk, bid, PO): 90%
- Aurora A T288 green foci in mitotic cells (immunofluorescence) ([2]; SGC-7901, 5 µM, 24 h): became weaker or disappeared
- phosphorylation of phospho-Aurora kinase A (T288) (western blot) ([2]; SGC-7901 synchronized with nocodazole, various concentrations, acute treatment): decreased in a concentration-dependent manner
- Final TGI% (BEL-7404 xenograft; BEL-7404, 12.5 mg/kg twice a day per oral gavage, day of study termination (Table S2)): 90%
- Body weight changes% (BEL-7404 xenograft; BEL-7404, 12.5 mg/kg twice a day per oral gavage, before vs after treatment): -1.9%
- Tumor Regression (BEL-7404 xenograft; BEL-7404, 12.5 mg/kg twice a day per oral gavage, mice with regression/group): 0/10
- Final TGI% (BEL-7404 xenograft; BEL-7404, 3.125 mpk, bid, PO): 47%
- Final TGI% (BEL-7404 xenograft; BEL-7404, 6.25 mpk, bid, PO): 67%
- IC50 (VEGFR2): 25 ± 6 nM
- IC50 (Aurora kinase A): 67 ± 4 nM
- IC50 (Aurora kinase B): 167 ± 13 nM
- phospho-Aurora A (T288) staining in tumors (phospho-Aurora A (T288)): weaker staining
